Measured values taken from PubChem BioAssay AID1963440 (Molecular Pharmacology Branch, DTP, NCI, 2024).
Values joined by “and” are separate entries in the source; they are usually repeats but may differ in a detail not shown here. Equal entries are not always repeated.

System: NCI-H1417 complex spheroids, growth % test/control
Test: Anticancer human tumor NCI-H1417 cell line growth inhibition [Asc];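 further: spheroids exposed to compounds for 7 days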;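 on viability, T/C: 100% = DMSO vehicle control wells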
Details: for viability, T/C: stronger effect = lower value
Method in brief: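 Complex spheroids combining tumor cells with HUVEC endothelial cells and human MSCs, at 37 degrees C, 5% CO2; agents tested alone or combined, half-log dilutions from at or near clinical Cmax, or 10 microM if Cmax unknown.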

[1] = curve of first compound, second compound 0.1 µM
[2] = curve of first compound, second compound 0.316 µM
[3] = curve of first compound, second compound 1 µM
[4] = second compound 0.1 µM, first compound 0.000316 µM
[5] = second compound 0.1 µM, first compound 0.001 µM
[6] = second compound 0.1 µM, first compound 0.00316 µM
[7] = second compound 0.1 µM, first compound 0.01 µM
[8] = second compound 0.1 µM, first compound 0.0316 µM
[9] = second compound 0.1 µM, first compound 0.1 µM
[10] = second compound 0.316 µM, first compound 0.000316 µM
[11] = second compound 0.316 µM, first compound 0.001 µM
[12] = second compound 0.316 µM, first compound 0.00316 µM
[13] = second compound 0.316 µM, first compound 0.01 µM
[14] = second compound 0.316 µM, first compound 0.0316 µM
[15] = second compound 0.316 µM, first compound 0.1 µM
[16] = second compound 1 µM, first compound 0.000316 µM
[17] = second compound 1 µM, first compound 0.001 µM
[18] = second compound 1 µM, first compound 0.00316 µM
[19] = second compound 1 µM, first compound 0.01 µM
[20] = second compound 1 µM, first compound 0.0316 µM
[21] = second compound 1 µM, first compound 0.1 µM

Cn1ncnc1[C@H]1c2n[nH]c(=O)c3cc(F)cc(c23)N[C@@H]1c1ccc(F)cc1 + Cc1c(S(C)(=O)=O)c(-c2cc(F)cc(N3CCN(c4ccc(NS(=O)(=O)c5ccc(NC(CCN6CCC(C(=O)OCCCP(=O)(O)O)CC6)CSc6ccccc6)c(S(=O)(=O)C(F)(F)F)c5)cc4)CC3)c2)c(-c2ccc(Cl)cc2)n1C(C)C was tested, and the IC50 [1] was 3.84 nM, the IC50 [2] was < 0.316 nM and the IC50 [3] was < 0.316 nM. The IC50 (curve of first compound, second compound 3.16 µM) was < 0.316 nM, the IC50 (curve of first compound, second compound 10 µM) was < 0.316 nM and the viability, T/C [4] was 85.9%. It also gave a viability, T/C [5] of 83.2%, a viability, T/C [6] of 54.8% and a viability, T/C [7] of 21.9%. For the same molecule, the viability, T/C [8] was 8.37%, the viability, T/C [9] was 5.48% and the viability, T/C [10] was 46.7%. It also gave a viability, T/C [11] of 42.7%, a viability, T/C [12] of 31.7% and a viability, T/C [13] of 5.82%. For the same molecule, the viability, T/C [14] was 3.42%, the viability, T/C [15] was 3.86% and the viability, T/C [16] was 12.5%. It also gave a viability, T/C [17] of 10.4%, a viability, T/C [18] of 6.37% and a viability, T/C [19] of 3.13%. It also gave a viability, T/C [20] of 2.7%, a viability, T/C [21] of 3.15% and a viability, T/C (second compound 3.16 µM, first compound 0.000316 µM) of 3.13%. It also gave a viability, T/C (second compound 3.16 µM, first compound 0.001 µM) of 2.74%, a viability, T/C (second compound 3.16 µM, first compound 0.00316 µM) of 2.64% and a viability, T/C (second compound 3.16 µM, first compound 0.01 µM) of 2.34%. It also gave a viability, T/C (second compound 3.16 µM, first compound 0.0316 µM) of 3.42%, a viability, T/C (second compound 3.16 µM, first compound 0.1 µM) of 2.69% and a viability, T/C (second compound 10 µM, first compound 0.000316 µM) of 2.53%. The viability, T/C (second compound 10 µM, first compound 0.001 µM) was 2.63%, the viability, T/C (second compound 10 µM, first compound 0.00316 µM) was 2.54% and the viability, T/C (second compound 10 µM, first compound 0.01 µM) was 2.98%. It also gave a viability, T/C (second compound 10 µM, first compound 0.0316 µM) of 3.14% and a viability, T/C (second compound 10 µM, first compound 0.1 µM) of 2.76%.

For NC1CCC(NC2CC2c2ccccc2)CC1 (configuration not stated) + CNC(C)C(=O)NC1CN(S(=O)(=O)c2cccc(S(=O)(=O)N3CCC4CCC(C(=O)NC(c5ccccc5)c5ccccc5)N4C(=O)C(NC(=O)C(C)NC)C3)c2)CCC2CCC(C(=O)NC(c3ccccc3)c3ccccc3)N2C1=O, the IC50 (curve of first compound, second compound 0.01 µM) was > 100 nM, the IC50 (curve of first compound, second compound 0.0316 µM) was > 100 nM and the IC50 [1] was > 100 nM. For the same molecule, the IC50 [2] was > 100 nM, the IC50 [3] was > 100 nM and the viability, T/C (second compound 0.01 µM, first compound 0.000316 µM) was 93.4%. The viability, T/C (second compound 0.01 µM, first compound 0.001 µM) was 92.8%, the viability, T/C (second compound 0.01 µM, first compound 0.00316 µM) was 88.7% and the viability, T/C (second compound 0.01 µM, first compound 0.01 µM) was 89.4%. For the same molecule, the viability, T/C (second compound 0.01 µM, first compound 0.0316 µM) was 84.2%, the viability, T/C (second compound 0.01 µM, first compound 0.1 µM) was 91% and the viability, T/C (second compound 0.0316 µM, first compound 0.000316 µM) was 106%. For the same molecule, the viability, T/C (second compound 0.0316 µM, first compound 0.001 µM) was 80.6%, the viability, T/C (second compound 0.0316 µM, first compound 0.00316 µM) was 91.8% and the viability, T/C (second compound 0.0316 µM, first compound 0.01 µM) was 81.8%. The viability, T/C (second compound 0.0316 µM, first compound 0.0316 µM) was 80.2%, the viability, T/C (second compound 0.0316 µM, first compound 0.1 µM) was 80.4% and the viability, T/C [4] was 84.8%. It also gave a viability, T/C [5] of 91%, a viability, T/C [6] of 85.5% and a viability, T/C [7] of 81.4%. For the same molecule, the viability, T/C [8] was 82.9%, the viability, T/C [9] was 89.7% and the viability, T/C [10] was 87.6%. The viability, T/C [11] was 99.3%, the viability, T/C [12] was 82% and the viability, T/C [13] was 80.8%. The viability, T/C [14] was 88.1%, the viability, T/C [15] was 105% and the viability, T/C [16] was 97.2%. It also gave a viability, T/C [17] of 88.5%, a viability, T/C [18] of 89.7% and a viability, T/C [19] of 88%. For the same molecule, the viability, T/C [20] was 84% and the viability, T/C [21] was 90.2%.

With C=CC(=O)N1CCN(c2nc(=O)n(-c3c(C)ccnc3C(C)C)c3nc(-c4c(O)cccc4F)c(F)cc23)C(C)C1 (configuration not stated) + CCN1C(C(=O)NC23CCC(C(=O)O)(CC2)CC3)C(c2cccc(Cl)c2F)C2(C(=O)Nc3cc(Cl)ccc32)C12CCCCC2 the IC50 (curve of first compound, second compound 0.03 µM) was > 10000 nM, the IC50 (curve of first compound, second compound 0.0949 µM) was > 10000 nM and the IC50 (curve of first compound, second compound 0.3 µM) was > 10000 nM. For the same molecule, the IC50 (curve of first compound, second compound 0.949 µM) was > 10000 nM, the IC50 (curve of first compound, second compound 3 µM) was > 10000 nM and the viability, T/C (second compound 0.03 µM, first compound 0.0316 µM) was 94.4%. The viability, T/C (second compound 0.03 µM, first compound 0.1 µM) was 100%, the viability, T/C (second compound 0.03 µM, first compound 0.316 µM) was 109% and the viability, T/C (second compound 0.03 µM, first compound 1 µM) was 101%. For the same molecule, the viability, T/C (second compound 0.03 µM, first compound 3.16 µM) was 115%, the viability, T/C (second compound 0.03 µM, first compound 10 µM) was 105% and the viability, T/C (second compound 0.0949 µM, first compound 0.0316 µM) was 102%. It also gave a viability, T/C (second compound 0.0949 µM, first compound 0.1 µM) of 94.4%, a viability, T/C (second compound 0.0949 µM, first compound 0.316 µM) of 98.4% and a viability, T/C (second compound 0.0949 µM, first compound 1 µM) of 101%. The viability, T/C (second compound 0.0949 µM, first compound 3.16 µM) was 104%, the viability, T/C (second compound 0.0949 µM, first compound 10 µM) was 119% and the viability, T/C (second compound 0.3 µM, first compound 0.0316 µM) was 102%. The viability, T/C (second compound 0.3 µM, first compound 0.1 µM) was 107%, the viability, T/C (second compound 0.3 µM, first compound 0.316 µM) was 106% and the viability, T/C (second compound 0.3 µM, first compound 1 µM) was 94.3%. The viability, T/C (second compound 0.3 µM, first compound 3.16 µM) was 99.8%, the viability, T/C (second compound 0.3 µM, first compound 10 µM) was 112% and the viability, T/C (second compound 0.949 µM, first compound 0.0316 µM) was 94.3%. It also gave a viability, T/C (second compound 0.949 µM, first compound 0.1 µM) of 95.4%, a viability, T/C (second compound 0.949 µM, first compound 0.316 µM) of 93.1% and a viability, T/C (second compound 0.949 µM, first compound 1 µM) of 97.9%. It also gave a viability, T/C (second compound 0.949 µM, first compound 3.16 µM) of 95.5%, a viability, T/C (second compound 0.949 µM, first compound 10 µM) of 99.5% and a viability, T/C (second compound 3 µM, first compound 0.0316 µM) of 91.6%. It also gave a viability, T/C (second compound 3 µM, first compound 0.1 µM) of 93.2%, a viability, T/C (second compound 3 µM, first compound 0.316 µM) of 98.5% and a viability, T/C (second compound 3 µM, first compound 1 µM) of 93.7%. For the same molecule, the viability, T/C (second compound 3 µM, first compound 3.16 µM) was 93.4% and the viability, T/C (second compound 3 µM, first compound 10 µM) was 103%.

In the case of O=C(c1cc(Cc2n[nH]c(=O)c3ccccc23)ccc1F)N1CCN(C(=O)C2CC2)CC1, the viability, T/C (compound 0.0316 µM) is reported as 96.7% and 102% and 86.3%, the viability, T/C (compound 0.1 µM) is reported as 106% and 90.7% and 91.3% and the viability, T/C (compound 0.316 µM) is reported as 89.8% and 84.6% and 86.3%. The viability, T/C (compound 1 µM) was 80.9% and 84.3% and 99.2%, the viability, T/C (compound 3.16 µM) was 56.5% and 56.2% and 71% and the viability, T/C (compound 10 µM) was 38.3% and 24.6% and 36%. The IC50 (curve of compound) was 4830 nM and 4200 nM and 6310 nM.
